Legend:
Assay type in all cases: cell-based
E. coli [1] = test: RT-PCR of extracted RNA with 16SrDNA specific primers, with vs without antibiotic; conditions: ampicillin-susceptible E. coli, 1×10^6 cells/mL, ampicillin 100 μg/mL, 37° C., 60 minutes; FIG. 10 table 1
Method: (§1) Overnight E. coli culture that was susceptible to ampicillin was further sub-cultured for 2-3 hours to log phase. Cells in this culture were quantified using OD600nm values. The culture was diluted to 1×10^6 cells/mL and 10 mL was aliquoted into two, 50 ml conical flask. Ampicillin at 100 μg/mL was added to one of the conical flasks. The two flasks, with and without antibiotic were incubated at 37° C. and two, 50 μL aliquots were taken from each flask at regular intervals (0, 30, 40 and 60 mins). Nucleic acid (NA) was extracted from all sample aliquots using the VERSANT® brand Sample preparation 1.0 reagent kit. The NA samples were then subjected to PCR and RT-PCR (reverse transcription-PCR) using 16SrDNA specific primers (each DNA extracted sample was split into two replicates for PCR). […] In this experiment, all RNA samples were treated with DNAse for 60 min at 37° C. before RT-PCR. In a subsequent experiment it was shown that a treatment as low as 5 minutes was also sufficient to eliminate DNA from the sample.

E. coli [2] = test: PCR of extracted DNA with 16SrDNA specific primers, with vs without antibiotic (no EMA); conditions: ampicillin-susceptible E. coli, 1×10^6 cells/mL, ampicillin 100 μg/mL, 37° C.
Method: as §1
Overnight E. coli culture that was susceptible to ampicillin was further sub-cultured for 2-3 hours to log phase. Cells in this culture was quantified using OD600nm values. The culture was diluted to 1×10^6 cells/mL and 10 mL was aliquoted into two, 50 ml conical flasks. Ampicillin at 100 μg/mL was added to one of the conical flasks. […]

E. coli [3] = test: EMA (ethidium monoazide) + blue light treatment followed by PCR with 16SrDNA specific primers, with vs without antibiotic
Method: FIG. 3 illustrates a method of determining antibiotic susceptibility of micro-organisms, according to yet another embodiment. At step 301, the sample comprising the micro-organism is received. At step 302, at least one first portion of the sample is incubated with an antibiotic and at least one second portion of the sample is incubated with no antibiotic. The micro-organisms in the sample are required to be grown/cultured or incubated for the shortest possible time in which discernible nucleic acid differences can be measured. For example, the micro-organisms are cultured or incubated for a range of at least one to five doubling cycles. Antibiotics which are cell wall synthesis inhibitors (beta lactam) and cell membrane inhibitors (colistin) affect the integrity of cell wall of the micro-organisms. This facilitates determination of antibiotic susceptibility. Once the doubling cycle range is met for the at least one first and second portion of the sample, at step 303, an intercalating dye is introduced to the at least one first portion of the sample and the at least one second portion of the sample. […]
Overnight E. coli culture that was susceptible to ampicillin was further sub-cultured for 2-3 hours to log phase. Cells in this culture was quantified using OD600nm values. […]

Structure (SMILES): CC1(C)S[C@@H]2[C@H](NC(=O)[C@H](N)c3ccccc3)C(=O)N2[C@H]1C(=O)O [ampicillin]
- detection of ampicillin susceptibility by RNA levels (E. coli [1]): able to detect for ampicillin susceptibility at 60 minutes
- distinction of antibiotic and no antibiotic samples by DNA levels (E. coli [2]; 60 min incubation, FIG. 10 table 2): did not distinguish antibiotic and no antibiotic samples
- difference in Ct between ampicillin exposed and unexposed, samples not exposed to EMA+blue light (E. coli [2]; up to 30 mins, no EMA, FIG. 14 table 2): did not show any difference
- effect of including EMA on the difference in cycle threshold values between first (ampicillin) and second (no ampicillin) portion (E. coli [3]; FIG. 4, graph 402 (ampicillin and EMA) vs graph 401 (ampicillin only)): improves the difference in the cycle threshold values
- difference in Ct between ampicillin exposed and unexposed, samples exposed to EMA (E. coli [3]; ampicillin-susceptible E. coli, 1×10^6 cells/mL, ampicillin 100 μg/mL, 37° C., within 30 minutes, EMA + blue LED light, FIG. 14 table 1): large difference in Ct

From patent publication US20250354223A1, “METHODS AND KITS FOR D[…] SUSCEPTIBILITY” (Siemens Healthcare Diagnostics Inc., priority 2022, published 2025)
